Reference: patent US9005902B2, “Tuberculosis diagnostic test” (priority 1998, dated 2015)

Assays:
[1] = system: ESAT-6 peptide-specific IFN-γ-secreting T cells from peripheral blood; format: cell-based, human; settings: for % of TB patients responding to individual peptide: peptide 10 μg/ml, 3×10^5 PBMC/well, positive = at least 5 IFN-γ SFCs more than and at least twice negative control
HLA DR1 = assay: Peptide binding to HLA DR1
HLA DR7 = assay: Peptide binding to HLA DR7

| Sequence | % of TB patients responding to individual peptide [1] | other results |
| --- | --- | --- |
| WNFAGIEAAASAIQG [ES2] | 40% |  |
| MTEQQWNFAGIEAAA (listed as Mycobacterium tuberculosis) [ES1, 15-mer peptide from ESAT-6 of M. tuberculosis] | 57% | Binding to HLA DR1 (HLA DR1): binds; % of healthy contacts tested recognising the peptide ([1]; healthy contacts exposed to open pulmonary tuberculosis): 68%; Number of contacts testing positive ([1]; out of 22 contacts with prolonged exposure to smear positive index case, Heaf test grade 3 or 4): 15; Binding to HLA DR7 (HLA DR7): binds |
| NLARTISEAGQAMAS [ES15] | 34% |  |
| QKWDATATELNNALQ (listed as Mycobacterium tuberculosis) [ES12, 15-mer peptide from ESAT-6 of M. tuberculosis] | 25% |  |
| EGKQSLTKLAAAWGG (listed as Mycobacterium tuberculosis) [ES7, 15-mer peptide from ESAT-6 of M. tuberculosis] | 15% |  |
| YQGVQQKWDATATEL [ES11] | 34% |  |
| NNALQNLARTISEAG [ES14] | 28% | Detection of ESAT-6-specific CD8 T cells ([1]; peptide contains CD8 epitopes): detected |
| SAIQGNVTSIHSLLD (listed as Mycobacterium tuberculosis) [ES4, 15-mer peptide from ESAT-6 of M. tuberculosis] | 23% |  |
